One may read the IC50 as the concentration at which inhibition is half-maximal. Read a low IC50 as inhibition by little substance. The half-life is the time in which the quantity being followed falls by half. High values mean slow loss, low ones fast loss. For orientation: bioavailability means the share of a dose that reaches the circulation, judged against a reference dose that is usually intravenous. As usually defined, the clearance is the rate of elimination divided by the concentration. In general, EC50 refers to the concentration that produces a half-maximal response. Broadly, the Tmax is the time from dosing to the highest level. For orientation: Cmax means the highest concentration seen after dosing.

The source of these data is ChEMBL document CHEMBL1148543, “Discovery of A-770041, a src-family selective orally active lck inhibitor that prevents organ allograft rejection” (Bioorg Med Chem Lett, 2006).

Data set [1] has as its target T1, Tyrosine-protein kinase Lck (Homo sapiens, UniProt P06239). Nature of the data set: Inhibitory activity against lck.
For data set [2], the target named is Tyrosine-protein kinase Fyn (Homo sapiens, UniProt P06241). Nature of the data set: Inhibitory activity against fyn.
Sequence of Tyrosine-protein kinase Fyn (P06241 whole entry): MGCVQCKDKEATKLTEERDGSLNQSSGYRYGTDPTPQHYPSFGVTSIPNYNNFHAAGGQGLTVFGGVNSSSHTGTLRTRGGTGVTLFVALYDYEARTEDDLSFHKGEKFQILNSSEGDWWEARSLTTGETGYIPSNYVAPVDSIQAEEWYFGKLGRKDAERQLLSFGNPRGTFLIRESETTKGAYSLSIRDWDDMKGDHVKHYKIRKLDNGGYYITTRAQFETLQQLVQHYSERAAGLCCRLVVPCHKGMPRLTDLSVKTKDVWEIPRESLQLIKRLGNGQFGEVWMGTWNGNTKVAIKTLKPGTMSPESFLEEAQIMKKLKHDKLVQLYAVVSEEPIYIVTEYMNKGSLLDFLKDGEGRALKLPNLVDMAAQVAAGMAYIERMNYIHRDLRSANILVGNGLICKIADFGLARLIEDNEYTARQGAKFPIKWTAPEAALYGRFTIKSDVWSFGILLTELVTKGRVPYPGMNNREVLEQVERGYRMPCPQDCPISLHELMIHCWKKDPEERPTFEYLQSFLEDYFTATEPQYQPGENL
Data set [3] has as its target T1, Tyrosine-protein kinase Lck. Nature of the data set: Inhibitory activity against anti-CD3 mAb-induced IL2 production in human whole blood. The format is functional, tissue-based.
Data set [4] in a line: Half life in mouse. The format is ADME, organism-based. The conditions noted are these: in vivo.
Data set [5] addresses Proto-oncogene tyrosine-protein kinase LCK (Mus musculus) (UniProt P06240).
Data set [6] can be described thus: Oral bioavailability in mouse. The conditions noted are these: in vivo. Type of data set: ADME, organism-based.
For data set [7], the target named is Proto-oncogene tyrosine-protein kinase Src (Homo sapiens, UniProt P12931). Nature of the data set: Inhibitory activity against src.
A short description of data set [8]: Plasma clearance in rat. The format is ADME, organism-based.
The species entered for data set [9] is Rattus norvegicus. Nature of the data set: Plasma concentration in rat at […]. The format is ADME, organism-based. The conditions noted are these: in vivo.
Data set [10] in a line: Oral bioavailability in rat. The format is ADME, organism-based. The conditions noted are these: in vivo.
Data set [11] deals with Rattus norvegicus. Nature of the data set: Plasma concentration in rat at 10 mg/kg/day. The format is ADME, organism-based. The settings on record: in vivo.
The target in data set [12] is Tyrosine-protein kinase Lyn (Homo sapiens, UniProt P07948). Nature of the data set: Inhibitory activity against lyn.
Sequence of Tyrosine-protein kinase Lyn (P07948 whole entry): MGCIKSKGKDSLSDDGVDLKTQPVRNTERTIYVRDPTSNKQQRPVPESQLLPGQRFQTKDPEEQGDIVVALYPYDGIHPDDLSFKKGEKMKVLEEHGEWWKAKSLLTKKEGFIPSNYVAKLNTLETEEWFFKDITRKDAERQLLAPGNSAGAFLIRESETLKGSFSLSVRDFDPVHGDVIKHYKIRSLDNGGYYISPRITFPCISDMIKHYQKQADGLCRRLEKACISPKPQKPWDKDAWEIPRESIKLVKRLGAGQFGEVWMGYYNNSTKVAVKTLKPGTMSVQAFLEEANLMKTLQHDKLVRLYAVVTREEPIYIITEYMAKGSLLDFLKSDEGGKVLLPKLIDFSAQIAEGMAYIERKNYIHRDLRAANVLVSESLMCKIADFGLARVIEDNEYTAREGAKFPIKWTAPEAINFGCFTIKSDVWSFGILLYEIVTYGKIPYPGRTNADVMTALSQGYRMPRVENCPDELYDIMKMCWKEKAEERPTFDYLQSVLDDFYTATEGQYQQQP
Data set [13] deals with Rattus norvegicus. Nature of the data set: Plasma concentration in rat at 5 mg/kg/day. Type of data set: ADME, organism-based. The settings on record: in vivo.
The target of data set [14] is Mitogen-activated protein kinase kinase kinase 8 (Homo sapiens, UniProt P41279). Nature of the data set: Inhibitory activity against COT.
Sequence of Mitogen-activated protein kinase kinase kinase 8 (P41279 whole entry): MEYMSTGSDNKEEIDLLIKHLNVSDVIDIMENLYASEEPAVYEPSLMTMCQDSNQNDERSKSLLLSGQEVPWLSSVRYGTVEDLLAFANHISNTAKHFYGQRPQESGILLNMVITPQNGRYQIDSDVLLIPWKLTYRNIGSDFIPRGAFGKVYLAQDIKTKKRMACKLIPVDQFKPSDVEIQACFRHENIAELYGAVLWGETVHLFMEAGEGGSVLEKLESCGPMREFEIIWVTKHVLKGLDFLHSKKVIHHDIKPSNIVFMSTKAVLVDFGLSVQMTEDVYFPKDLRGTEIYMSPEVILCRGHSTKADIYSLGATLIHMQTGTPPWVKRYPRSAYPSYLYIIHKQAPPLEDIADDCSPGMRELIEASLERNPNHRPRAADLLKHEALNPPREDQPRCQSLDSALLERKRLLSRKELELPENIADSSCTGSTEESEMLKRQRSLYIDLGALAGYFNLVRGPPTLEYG
In data set [15] the target is Tyrosine-protein kinase Fgr (Homo sapiens, UniProt P09769). Nature of the data set: Inhibitory activity against fgr.
Sequence of Tyrosine-protein kinase Fgr (P09769 whole entry): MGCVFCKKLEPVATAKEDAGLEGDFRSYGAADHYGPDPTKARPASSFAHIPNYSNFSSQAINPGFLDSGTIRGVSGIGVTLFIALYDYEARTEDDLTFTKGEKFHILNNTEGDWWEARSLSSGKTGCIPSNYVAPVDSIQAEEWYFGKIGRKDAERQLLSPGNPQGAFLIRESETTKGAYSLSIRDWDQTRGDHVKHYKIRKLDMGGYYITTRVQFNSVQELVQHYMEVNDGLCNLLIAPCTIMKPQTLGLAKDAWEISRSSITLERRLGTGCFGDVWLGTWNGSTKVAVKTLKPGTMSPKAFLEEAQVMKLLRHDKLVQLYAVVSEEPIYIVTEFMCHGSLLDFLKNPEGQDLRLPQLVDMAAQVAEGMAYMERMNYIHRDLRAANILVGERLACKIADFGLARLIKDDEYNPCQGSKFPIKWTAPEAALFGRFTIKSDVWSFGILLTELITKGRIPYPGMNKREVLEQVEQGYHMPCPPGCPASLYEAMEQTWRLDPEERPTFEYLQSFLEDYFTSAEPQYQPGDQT
In data set [16] the target is T2, Tyrosine-protein kinase ZAP-70 (Homo sapiens, UniProt P43403).
T2 sequence (P43403 whole entry): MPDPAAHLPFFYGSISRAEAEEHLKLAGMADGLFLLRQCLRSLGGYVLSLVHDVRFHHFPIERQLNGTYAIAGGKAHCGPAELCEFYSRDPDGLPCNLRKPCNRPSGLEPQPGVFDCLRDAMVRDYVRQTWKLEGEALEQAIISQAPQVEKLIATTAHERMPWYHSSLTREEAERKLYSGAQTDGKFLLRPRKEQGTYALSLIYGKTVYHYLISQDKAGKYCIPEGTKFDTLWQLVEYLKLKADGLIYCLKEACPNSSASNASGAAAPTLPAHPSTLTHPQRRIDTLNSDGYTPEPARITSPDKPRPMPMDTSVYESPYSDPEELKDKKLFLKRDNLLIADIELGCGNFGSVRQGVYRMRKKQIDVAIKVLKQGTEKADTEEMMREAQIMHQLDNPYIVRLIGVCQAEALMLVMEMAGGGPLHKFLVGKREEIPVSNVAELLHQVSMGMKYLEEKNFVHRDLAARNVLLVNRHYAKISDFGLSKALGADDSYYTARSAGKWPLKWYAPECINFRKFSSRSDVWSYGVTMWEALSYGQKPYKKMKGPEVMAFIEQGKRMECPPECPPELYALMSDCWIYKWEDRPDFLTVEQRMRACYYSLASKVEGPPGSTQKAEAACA
Nature of the data set: Inhibitory activity against ZAP70.

Data set [17] has as its target Proto-oncogene tyrosine-protein kinase LCK (Mus musculus, UniProt P06240). Nature of the data set: Inhibition of TCR stimulated IL2 production in mice administered orally. Type of data set: functional.
Data set [18] concerns the target Tyrosine-protein kinase SYK (Homo sapiens, UniProt P43405). Nature of the data set: Inhibitory activity against Syk.
The target of another data set is Angiopoietin-1 receptor (Homo sapiens, UniProt Q02763). Nature of the data set: Inhibitory activity against tie2.
Sequence of Angiopoietin-1 receptor (Q02763 whole entry): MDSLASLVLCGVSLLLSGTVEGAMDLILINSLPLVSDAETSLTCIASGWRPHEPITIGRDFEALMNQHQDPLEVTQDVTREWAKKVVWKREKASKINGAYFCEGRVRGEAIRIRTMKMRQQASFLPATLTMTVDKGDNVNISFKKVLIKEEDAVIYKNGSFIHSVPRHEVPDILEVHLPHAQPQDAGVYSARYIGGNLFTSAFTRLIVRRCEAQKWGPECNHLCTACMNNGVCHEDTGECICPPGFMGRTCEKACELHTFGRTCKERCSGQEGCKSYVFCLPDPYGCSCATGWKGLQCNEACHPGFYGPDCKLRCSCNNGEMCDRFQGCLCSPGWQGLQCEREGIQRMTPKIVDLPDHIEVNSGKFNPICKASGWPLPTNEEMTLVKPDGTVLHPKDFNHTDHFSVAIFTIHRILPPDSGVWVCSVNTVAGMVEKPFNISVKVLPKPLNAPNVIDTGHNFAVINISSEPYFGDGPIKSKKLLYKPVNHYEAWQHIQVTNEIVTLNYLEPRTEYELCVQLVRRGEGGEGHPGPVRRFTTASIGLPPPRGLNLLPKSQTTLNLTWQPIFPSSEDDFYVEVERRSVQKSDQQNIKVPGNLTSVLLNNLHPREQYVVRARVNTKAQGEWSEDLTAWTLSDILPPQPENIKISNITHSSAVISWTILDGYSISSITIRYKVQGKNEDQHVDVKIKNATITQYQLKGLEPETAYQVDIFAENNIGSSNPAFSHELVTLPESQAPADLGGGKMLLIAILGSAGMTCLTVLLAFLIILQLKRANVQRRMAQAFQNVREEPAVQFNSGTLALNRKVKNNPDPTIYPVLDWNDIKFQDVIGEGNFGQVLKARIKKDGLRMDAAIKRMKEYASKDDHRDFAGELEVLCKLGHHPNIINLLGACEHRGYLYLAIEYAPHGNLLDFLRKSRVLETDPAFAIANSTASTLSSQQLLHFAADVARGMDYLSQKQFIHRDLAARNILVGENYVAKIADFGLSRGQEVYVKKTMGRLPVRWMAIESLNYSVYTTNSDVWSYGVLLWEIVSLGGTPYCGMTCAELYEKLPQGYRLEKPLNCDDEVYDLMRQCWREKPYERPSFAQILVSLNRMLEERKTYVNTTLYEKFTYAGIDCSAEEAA
Data set [19] can be described thus: Tmax in mouse. The format is ADME, organism-based. The settings on record: in vivo.
Data set [20] can be described thus: Half life in rat. The format is ADME, organism-based. The conditions noted are these: in vivo.
Data set [21] is described as follows: Plasma clearance in mouse. The format is ADME, organism-based.
Data set [22] in a line: Volume of distribution in mouse. The format is ADME, organism-based. The conditions noted are these: in vivo, read-out: Vdss.
Data set [23] can be described thus: Cmax in mouse. The format is ADME, organism-based. The conditions noted are these: in vivo.
Data set [24] can be described thus: Volume of distribution in rat. The format is ADME, organism-based. The settings on record: in vivo, read-out: Vdss.
The nature of data set [25]: Tmax in rat. The format is ADME, organism-based. The settings on record: in vivo.
The nature of data set [26]: Cmax in rat. The format is ADME, organism-based. The conditions noted are these: in vivo.

T1 sequence (P06239 whole entry): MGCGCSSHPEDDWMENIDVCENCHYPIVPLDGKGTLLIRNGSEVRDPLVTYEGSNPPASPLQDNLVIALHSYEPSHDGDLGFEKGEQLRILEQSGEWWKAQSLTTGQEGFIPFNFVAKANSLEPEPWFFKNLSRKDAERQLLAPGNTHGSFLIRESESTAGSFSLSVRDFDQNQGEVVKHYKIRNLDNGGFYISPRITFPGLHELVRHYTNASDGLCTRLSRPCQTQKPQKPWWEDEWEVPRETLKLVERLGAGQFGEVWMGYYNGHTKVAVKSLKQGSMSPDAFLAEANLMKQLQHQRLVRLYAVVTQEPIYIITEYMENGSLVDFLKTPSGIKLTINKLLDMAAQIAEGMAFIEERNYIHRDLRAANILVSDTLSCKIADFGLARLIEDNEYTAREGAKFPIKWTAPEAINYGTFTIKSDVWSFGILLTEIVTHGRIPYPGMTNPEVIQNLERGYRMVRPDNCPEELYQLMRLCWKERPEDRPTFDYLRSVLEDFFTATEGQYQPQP
Sequence of Proto-oncogene tyrosine-protein kinase LCK (Mus musculus) (P06240 2-509 limits assumed): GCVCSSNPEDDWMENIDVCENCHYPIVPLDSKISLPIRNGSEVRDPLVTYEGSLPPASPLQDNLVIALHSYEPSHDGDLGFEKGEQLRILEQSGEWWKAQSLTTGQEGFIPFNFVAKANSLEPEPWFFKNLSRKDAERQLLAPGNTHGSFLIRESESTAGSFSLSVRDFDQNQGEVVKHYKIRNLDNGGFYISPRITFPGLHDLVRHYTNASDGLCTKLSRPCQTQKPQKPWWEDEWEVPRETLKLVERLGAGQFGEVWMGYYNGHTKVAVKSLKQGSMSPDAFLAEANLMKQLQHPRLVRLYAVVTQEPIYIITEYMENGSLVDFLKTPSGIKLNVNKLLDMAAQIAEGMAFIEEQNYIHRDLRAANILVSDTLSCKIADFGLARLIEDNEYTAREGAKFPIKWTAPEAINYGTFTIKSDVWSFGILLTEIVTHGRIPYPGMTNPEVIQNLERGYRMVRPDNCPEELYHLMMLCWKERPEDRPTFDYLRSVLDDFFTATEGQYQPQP
Sequence of Proto-oncogene tyrosine-protein kinase LCK (P06240 whole entry): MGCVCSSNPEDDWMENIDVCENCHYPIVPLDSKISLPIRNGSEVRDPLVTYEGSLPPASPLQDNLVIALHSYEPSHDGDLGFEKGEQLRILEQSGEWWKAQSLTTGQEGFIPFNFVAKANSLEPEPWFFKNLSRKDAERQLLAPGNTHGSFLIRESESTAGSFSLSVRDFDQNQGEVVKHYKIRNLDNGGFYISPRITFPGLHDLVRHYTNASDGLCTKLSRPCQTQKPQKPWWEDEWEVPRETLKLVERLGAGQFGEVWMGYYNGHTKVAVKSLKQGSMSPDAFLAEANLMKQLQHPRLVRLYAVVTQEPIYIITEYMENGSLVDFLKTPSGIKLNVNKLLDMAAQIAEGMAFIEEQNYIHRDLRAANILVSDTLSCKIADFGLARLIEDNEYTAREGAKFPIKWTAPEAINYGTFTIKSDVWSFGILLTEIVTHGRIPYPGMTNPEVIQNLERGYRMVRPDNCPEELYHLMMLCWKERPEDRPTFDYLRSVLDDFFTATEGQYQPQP

In the case of `COc1cc(-c2nn(C3CCN(C4CCOCC4)CC3)c3ncnc(N)c23)ccc1NC(=O)c1cc2cc(C(N)=O)ccc2n1C`, the IC50 is more than 50000 nM in data set [1] and more than 50 µM in [2].

Regarding `COc1cc(-c2nn(C3CCN(C4CCOCC4)CC3)c3ncnc(N)c23)ccc1NC(=O)c1cccc(O)c1`, the IC50 in data set [1] is 23200 nM; in [2], more than 50 µM.

As to `COc1cc(-c2nn(C3CCN(C4CCOCC4)CC3)c3ncnc(N)c23)ccc1NC(=O)c1cc2cc(Cl)ccc2n1C`, the IC50 in data set [3] worked out at 13 nM; in data set [1], 54 nM; in data set [2], 13.6 µM.

On to `COc1cc(-c2nn(C3CCN(C4CCN(C(C)=O)CC4)CC3)c3ncnc(N)c23)ccc1NC(=O)c1ccc(C(F)(F)F)cc1F`, for which the IC50 in data set [3] was 30 nM; in data set [1], 93 nM; in data set [2], more than 50 µM.

As for `COc1cc(-c2nn(C3CCN(C4CCOCC4)CC3)c3ncnc(N)c23)ccc1NC(=O)c1ccc(C(F)(F)F)cc1F`, the values for the half-inhibitory concentration (IC50) in data set [3], in [1] and in [2] were 40 nM, 102 nM and more than 50 µM, respectively.

On to `COc1cc(-c2nn(C3CCN(Cc4ccccc4)CC3)c3ncnc(N)c23)ccc1NC(=O)c1ccc(C(F)(F)F)cc1F`, for which the IC50 in data set [3] was 540 nM; in data set [1], 341 nM; in data set [2] it was more than 50 µM.

Compound `COc1cc(-c2nn(C3CCN(C4CCOCC4)CC3)c3ncnc(N)c23)ccc1NC(=O)c1cc2ccccc2n1C` had a half-life in data set [4] of 186 min. Besides, the IC50 in data set [3] was 20 nM; in data set [1], 107 nM; in [2], more than 50 µM. Further, the ED90 in data set [5] is 15.5 mg/kg. The bioavailability in [6] amounted to 93%.

`COc1cc(-c2nn(C3CCN(C4CCOCC4)CC3)c3ncnc(N)c23)ccc1NC(=O)c1nc2ccccc2n1C`: the half-maximal inhibitory concentration (IC50) in data set [3] is 54 nM; in data set [1], 318 nM; in data set [2] it was more than 50 µM.

For the compound `COc1cc(-c2nn(C3CCN(C4CCN(C)CC4)CC3)c3ncnc(N)c23)ccc1NC(=O)c1ccc(C(F)(F)F)cc1F`, the IC50 in data set [3] turned out to be 20 nM; in [1] it was 23 nM; in [2], 1.07 µM.

`COc1cc(-c2nn(C3CCN(C4CCOCC4)CC3)c3ncnc(N)c23)ccc1NC(=O)c1cc(O)c2ccccc2n1`: the IC50 is 9180 nM in data set [1] and more than 50 µM in data set [2].

For `COc1cc(-c2nn(C3CCNCC3)c3ncnc(N)c23)ccc1NC(=O)c1ccc(C(F)(F)F)cc1F`, the 50% inhibitory concentration (IC50) in data set [3] was 50 nM; in data set [1], 80 nM; in [2] it was more than 50 µM.

On to `COc1cc(-c2nn(C3CCN(C4CCN(C(C)=O)CC4)CC3)c3ncnc(N)c23)ccc1NC(=O)c1cc2ccccc2n1C`, for which the half-inhibitory concentration (IC50) is 17.2 µM in data set [7], 74 nM in data set [1] and not below 50 µM in data set [2]. This compound also gave an ED90 in [5] of 19 mg/kg.

`COc1cc(-c2nn(C3CCN(C)CC3)c3ncnc(N)c23)ccc1NC(=O)c1ccc(C(F)(F)F)cc1F`: the figures for the concentration for half-maximal inhibition (IC50) in data set [3], in [1] and in [2] were 30 nM, 106 nM and more than 50 µM, respectively.

For `COc1cc(-c2nn(C3CCN(C4CCOCC4)CC3)c3ncnc(N)c23)ccc1NC(=O)c1cc2cc(C#N)ccc2n1C`, the results for the IC50 in data set [1] and in data set [2] were 3480 nM and 32.5 µM, respectively.

In the case of `COc1cc(-c2nn(C3CCN(C4CCOCC4)CC3)c3ncnc(N)c23)ccc1NC(=O)c1ccc(N(C)C)cc1`, the figures for the IC50 in data set [3], in data set [1] and in data set [2] were 35 nM, 106 nM and more than 50 µM, respectively.

For the compound `COc1cc(-c2nn(C3CCN(C4CCOCC4)CC3)c3ncnc(N)c23)ccc1NC(=O)c1ccc(C)cc1`, the IC50 in data set [1] is 8960 nM; in data set [2], more than 50 µM.

Regarding `COc1cc(-c2nn([C@H]3CC[C@H](N4CCN(C(C)=O)CC4)CC3)c3ncnc(N)c23)ccc1NC(=O)c1cc2ccccc2n1C`, the figures for the clearance in data set [8] and in data set [21] were 3.33 mL/min/kg and 25 mL/min/kg, respectively. Moreover, the concentration in the data set listed under Rattus norvegicus [9] was 350 nM; in the data set with Rattus norvegicus [11], 2900 nM; in the data set on Rattus norvegicus [13], 1060 nM. The bioavailability in data set [10] turned out to be 52%; in [6], 27%. Further, the figures for the half-life in data set [4] and in [20] were 282 min and 246 min, respectively. In addition, the IC50 in data set [3] was 80 nM; in [12] it was 1180 nM; in data set [1], 147 nM; in [14] it was more than 25 µM; in data set [15], 14.1 µM; in data set [16] it was more than 25 µM. The half-maximal inhibitory concentration (IC50) in [18] is more than 25 µM; against Angiopoietin-1 receptor, more than 50 µM. This compound came in with an EC50 in [17] of 78 nM. In addition, the time to peak (Tmax) in data set [19] was 1 h; in data set [25], 4.7 h. In addition, the values for the Vd in [22] and in data set [24] were 10.3 L/kg and 1.2 L/kg, respectively. The figures for the highest concentration (Cmax) in data set [23] and in [26] were 387 ng/mL and 2080 ng/mL, respectively.

Regarding `COc1cc(-c2nn(C3CCN(C4CCOCC4)CC3)c3ncnc(N)c23)ccc1NC(=O)c1ccc(OC(F)(F)F)cc1`, the values for the IC50 in data set [1] and in data set [2] were 2350 nM and more than 50 µM, respectively.
